Experimental data taken from US10881599B2, “Whitening composition including novel kaempferol-based compound derived from post-fermented tea” (AMOREPACIFIC CORPORATION, priority 2017, dated 2021).
Each block holds one compound with its values, some of them ahead of it.

How the values were obtained:
mushroom tyrosinase = test: Tyrosinase activity-inhibitory effect; assay type: biochemical; conditions: L-tyrosine, 20 minutes at 37° C., absorbance at 490 nm
Description: The tyrosinase activity-inhibitory effect of new material 33 was evaluated. Specifically, tyrosinase and tyrosine derived from mushrooms were obtained from Sigma Chemical. […] Tyrosinase activity was assessed by measuring the absorbance at 490 nm using a microplate reader (Bio-Rad 3550, Richmond, Calif., U.S.A.) after an enzyme reaction for 20 minutes at 37° C.

Mel-Ab cell line = test: Melanin production-inhibitory effect (Dooley's method); assay type: cell-based, C57BL/6; conditions: Mel-Ab cells, melanin after 5 days, absorbance at 400 nm
skin = test: Human repeated insult patch test (HRIPT), skin accumulation stimulation; assay type: in vivo; set-up: key to Skin reactivity (ICDRG criteria): −: negative (no response); ±: doubtful or slight erythema, etc.; +: weak reaction (which is accompanied with no phlyctenule), erythema, papule; ++: severe reaction (which is accompanied with phlyctenule), erythema, papule, phlyctenule; +++: strong reaction, bullae reaction; conditions: for Number of subjects with ±, +, or ++ reactivity, 1st: 1st patch; for Number of subjects with ±, +, or ++ reactivity, 2nd: 2nd patch; for Number of subjects with ±, +, or ++ reactivity, 3rd: 3rd patch; for Number of subjects with ±, +, or ++ reactivity, 4th: 4th patch; for Number of subjects with ±, +, or ++ reactivity, 5th: 5th patch; for Number of subjects with ±, +, or ++ reactivity, 6th: 6th patch; for Number of subjects with ±, +, or ++ reactivity, 7th: 7th patch; for Number of subjects with ±, +, or ++ reactivity, 8th: 8th patch; for Average reactivity: 9 patches, 15 subjects, less than 3 is considered stable; for Number of subjects with ±, +, or ++ reactivity, 9th: 9th patch
Description: Human repeated insult patch tests (HRIPT) were performed to confirm the skin accumulation stimulation of the kaempferol3-O-[2-O″-(E)-p-coumaroyl][beta-D-glucopyranosyl-(1→3)-O-alpha-L-rhamnopyranosyl-(1→6)-O-beta-D-glucopyranoside] and to calculate the concentration range available for the skin.
Specifically, 15 healthy adult subjects were randomly selected, and the test composition (the skin composition including an emulsifier, a stabilizer, purified water, etc. in addition to the compound) containing 0.5 wt %, 1 wt %, and 3 wt % of the compound was added dropwise by 20 μl per chamber (IQ chamber, Epitest Ltd, Finland). After 24 hours from patching the upper right part of the back of a subject, it was replaced with the new patch. A total of 9 patches were conducted, three times a week for total 3 weeks, in such manner, the skin reactions before and after patch were examined every time, and the skin reactions until 48 hours after removing the final patch were observed, and the average reactivity was observed.
The skin response was determined according to the criteria of the International Contact Dermatitis Research Group (ICDRG). ‘New material 33’ in the table above is kaempferol3-O-[2-O″-(E)-p-coumaroyl][beta-D-glucopyranosyl-(1→3)-O-alpha-L-rhamnopyranosyl-(1→6)-O-beta-D-glucopyranoside].

Tyrosinase activity-inhibitory effect IC50 (mushroom tyrosinase): 149 ppm
SMILES: OC[C@H]1O[C@@H](Oc2ccc(O)cc2)[C@H](O)[C@@H](O)[C@@H]1O [Arbutin, reference compound]

Melanin production-inhibitory effect IC50 (Mel-Ab cell line): 39.36 ppm
SMILES: O=c1cc(CO)occ1O [Kojic acid, reference compound]

Melanin production-inhibitory effect IC50 (Mel-Ab cell line): 15.7 ppm | Tyrosinase activity-inhibitory effect IC50 (mushroom tyrosinase): 11 ppm | Skin reactivity (ICDRG criteria) (skin; 0.5 wt %, 1 wt % and 3 wt %, all subjects, all patches): − | Number of subjects with ±, +, or ++ reactivity, 1st (skin; 0.5 wt %, line 1 of 3 (±)): 0 person | Number of subjects with ±, +, or ++ reactivity, 1st (skin; 0.5 wt %, line 2 of 3 (+)): 0 person | Number of subjects with ±, +, or ++ reactivity, 1st (skin; 0.5 wt %, line 3 of 3 (++)): 0 person | Number of subjects with ±, +, or ++ reactivity, 2nd (skin; 0.5 wt %, line 1 of 3 (±)): 0 person | Number of subjects with ±, +, or ++ reactivity, 2nd (skin; 0.5 wt %, line 2 of 3 (+)): 0 person | Number of subjects with ±, +, or ++ reactivity, 2nd (skin; 0.5 wt %, line 3 of 3 (++)): 0 person | Number of subjects with ±, +, or ++ reactivity, 3rd (skin; 0.5 wt %, line 1 of 3 (±)): 0 person | Number of subjects with ±, +, or ++ reactivity, 3rd (skin; 0.5 wt %, line 2 of 3 (+)): 0 person | Number of subjects with ±, +, or ++ reactivity, 3rd (skin; 0.5 wt %, line 3 of 3 (++)): 0 person | Number of subjects with ±, +, or ++ reactivity, 4th (skin; 0.5 wt %, line 1 of 3 (±)): 0 person | Number of subjects with ±, +, or ++ reactivity, 4th (skin; 0.5 wt %, line 2 of 3 (+)): 0 person | Number of subjects with ±, +, or ++ reactivity, 4th (skin; 0.5 wt %, line 3 of 3 (++)): 0 person | Number of subjects with ±, +, or ++ reactivity, 5th (skin; 0.5 wt %, line 1 of 3 (±)): 0 person | Number of subjects with ±, +, or ++ reactivity, 5th (skin; 0.5 wt %, line 2 of 3 (+)): 0 person | Number of subjects with ±, +, or ++ reactivity, 5th (skin; 0.5 wt %, line 3 of 3 (++)): 0 person | Number of subjects with ±, +, or ++ reactivity, 6th (skin; 0.5 wt %, line 1 of 3 (±)): 0 person | Number of subjects with ±, +, or ++ reactivity, 6th (skin; 0.5 wt %, line 2 of 3 (+)): 0 person | Number of subjects with ±, +, or ++ reactivity, 6th (skin; 0.5 wt %, line 3 of 3 (++)): 0 person | Number of subjects with ±, +, or ++ reactivity, 7th (skin; 0.5 wt %, line 1 of 3 (±)): 0 person | Number of subjects with ±, +, or ++ reactivity, 7th (skin; 0.5 wt %, line 2 of 3 (+)): 0 person | Number of subjects with ±, +, or ++ reactivity, 7th (skin; 0.5 wt %, line 3 of 3 (++)): 0 person | Number of subjects with ±, +, or ++ reactivity, 8th (skin; 0.5 wt %, line 1 of 3 (±)): 0 person | Number of subjects with ±, +, or ++ reactivity, 8th (skin; 0.5 wt %, line 2 of 3 (+)): 0 person | Number of subjects with ±, +, or ++ reactivity, 8th (skin; 0.5 wt %, line 3 of 3 (++)): 0 person | Average reactivity (skin; 0.5 wt %): 0 | Number of subjects with ±, +, or ++ reactivity, 9th (skin; 0.5 wt %, line 1 of 3 (±)): 0 person | Number of subjects with ±, +, or ++ reactivity, 9th (skin; 0.5 wt %, line 2 of 3 (+)): 0 person | Number of subjects with ±, +, or ++ reactivity, 9th (skin; 0.5 wt %, line 3 of 3 (++)): 0 person | Number of subjects with ±, +, or ++ reactivity, 1st (skin; 1 wt %, line 1 of 3 (±)): 0 person | Number of subjects with ±, +, or ++ reactivity, 1st (skin; 1 wt %, line 2 of 3 (+)): 0 person | Number of subjects with ±, +, or ++ reactivity, 1st (skin; 1 wt %, line 3 of 3 (++)): 0 person | Number of subjects with ±, +, or ++ reactivity, 2nd (skin; 1 wt %, line 1 of 3 (±)): 0 person | Number of subjects with ±, +, or ++ reactivity, 2nd (skin; 1 wt %, line 2 of 3 (+)): 0 person | Number of subjects with ±, +, or ++ reactivity, 2nd (skin; 1 wt %, line 3 of 3 (++)): 0 person | Number of subjects with ±, +, or ++ reactivity, 3rd (skin; 1 wt %, line 1 of 3 (±)): 0 person | Number of subjects with ±, +, or ++ reactivity, 3rd (skin; 1 wt %, line 2 of 3 (+)): 0 person | Number of subjects with ±, +, or ++ reactivity, 3rd (skin; 1 wt %, line 3 of 3 (++)): 0 person | Number of subjects with ±, +, or ++ reactivity, 4th (skin; 1 wt %, line 1 of 3 (±)): 0 person | Number of subjects with ±, +, or ++ reactivity, 4th (skin; 1 wt %, line 2 of 3 (+)): 0 person | Number of subjects with ±, +, or ++ reactivity, 4th (skin; 1 wt %, line 3 of 3 (++)): 0 person | Number of subjects with ±, +, or ++ reactivity, 5th (skin; 1 wt %, line 1 of 3 (±)): 0 person | Number of subjects with ±, +, or ++ reactivity, 5th (skin; 1 wt %, line 2 of 3 (+)): 0 person | Number of subjects with ±, +, or ++ reactivity, 5th (skin; 1 wt %, line 3 of 3 (++)): 0 person | Number of subjects with ±, +, or ++ reactivity, 6th (skin; 1 wt %, line 1 of 3 (±)): 0 person | Number of subjects with ±, +, or ++ reactivity, 6th (skin; 1 wt %, line 2 of 3 (+)): 0 person | Number of subjects with ±, +, or ++ reactivity, 6th (skin; 1 wt %, line 3 of 3 (++)): 0 person | Number of subjects with ±, +, or ++ reactivity, 7th (skin; 1 wt %, line 1 of 3 (±)): 0 person | Number of subjects with ±, +, or ++ reactivity, 7th (skin; 1 wt %, line 2 of 3 (+)): 0 person | Number of subjects with ±, +, or ++ reactivity, 7th (skin; 1 wt %, line 3 of 3 (++)): 0 person | Number of subjects with ±, +, or ++ reactivity, 8th (skin; 1 wt %, line 1 of 3 (±)): 0 person | Number of subjects with ±, +, or ++ reactivity, 8th (skin; 1 wt %, line 2 of 3 (+)): 0 person | Number of subjects with ±, +, or ++ reactivity, 8th (skin; 1 wt %, line 3 of 3 (++)): 0 person | Average reactivity (skin; 1 wt %): 0 | Number of subjects with ±, +, or ++ reactivity, 9th (skin; 1 wt %, line 1 of 3 (±)): 0 person | Number of subjects with ±, +, or ++ reactivity, 9th (skin; 1 wt %, line 2 of 3 (+)): 0 person | Number of subjects with ±, +, or ++ reactivity, 9th (skin; 1 wt %, line 3 of 3 (++)): 0 person | Number of subjects with ±, +, or ++ reactivity, 1st (skin; 3 wt %, line 1 of 3 (±)): 0 person | Number of subjects with ±, +, or ++ reactivity, 1st (skin; 3 wt %, line 2 of 3 (+)): 0 person | Number of subjects with ±, +, or ++ reactivity, 1st (skin; 3 wt %, line 3 of 3 (++)): 0 person | Number of subjects with ±, +, or ++ reactivity, 2nd (skin; 3 wt %, line 1 of 3 (±)): 0 person | Number of subjects with ±, +, or ++ reactivity, 2nd (skin; 3 wt %, line 2 of 3 (+)): 0 person | Number of subjects with ±, +, or ++ reactivity, 2nd (skin; 3 wt %, line 3 of 3 (++)): 0 person | Number of subjects with ±, +, or ++ reactivity, 3rd (skin; 3 wt %, line 1 of 3 (±)): 0 person | Number of subjects with ±, +, or ++ reactivity, 3rd (skin; 3 wt %, line 2 of 3 (+)): 0 person | Number of subjects with ±, +, or ++ reactivity, 3rd (skin; 3 wt %, line 3 of 3 (++)): 0 person | Number of subjects with ±, +, or ++ reactivity, 4th (skin; 3 wt %, line 1 of 3 (±)): 0 person | Number of subjects with ±, +, or ++ reactivity, 4th (skin; 3 wt %, line 2 of 3 (+)): 0 person | Number of subjects with ±, +, or ++ reactivity, 4th (skin; 3 wt %, line 3 of 3 (++)): 0 person | Number of subjects with ±, +, or ++ reactivity, 5th (skin; 3 wt %, line 1 of 3 (±)): 0 person | Number of subjects with ±, +, or ++ reactivity, 5th (skin; 3 wt %, line 2 of 3 (+)): 0 person | Number of subjects with ±, +, or ++ reactivity, 5th (skin; 3 wt %, line 3 of 3 (++)): 0 person | Number of subjects with ±, +, or ++ reactivity, 6th (skin; 3 wt %, line 1 of 3 (±)): 0 person | Number of subjects with ±, +, or ++ reactivity, 6th (skin; 3 wt %, line 2 of 3 (+)): 0 person | Number of subjects with ±, +, or ++ reactivity, 6th (skin; 3 wt %, line 3 of 3 (++)): 0 person | Number of subjects with ±, +, or ++ reactivity, 7th (skin; 3 wt %, line 1 of 3 (±)): 0 person | Number of subjects with ±, +, or ++ reactivity, 7th (skin; 3 wt %, line 2 of 3 (+)): 0 person | Number of subjects with ±, +, or ++ reactivity, 7th (skin; 3 wt %, line 3 of 3 (++)): 0 person | Number of subjects with ±, +, or ++ reactivity, 8th (skin; 3 wt %, line 1 of 3 (±)): 0 person | Number of subjects with ±, +, or ++ reactivity, 8th (skin; 3 wt %, line 2 of 3 (+)): 0 person | Number of subjects with ±, +, or ++ reactivity, 8th (skin; 3 wt %, line 3 of 3 (++)): 0 person | Average reactivity (skin; 3 wt %): 0 | Number of subjects with ±, +, or ++ reactivity, 9th (skin; 3 wt %, line 1 of 3 (±)): 0 person | Number of subjects with ±, +, or ++ reactivity, 9th (skin; 3 wt %, line 2 of 3 (+)): 0 person | Number of subjects with ±, +, or ++ reactivity, 9th (skin; 3 wt %, line 3 of 3 (++)): 0 person
SMILES: C[C@@H]1O[C@@H](OC[C@H]2O[C@@H](Oc3c(-c4ccc(O)cc4)oc4cc(O)cc(O)c4c3=O)[C@H](OC(=O)/C=C/c3ccc(O)cc3)[C@@H](O)[C@@H]2O)[C@H](O)[C@H](O[C@@H]2O[C@H](CO)[C@@H](O)[C@H](O)[C@H]2O)[C@H]1O [new material 33, kaempferol3-O-[2-O″-(E)-p-coumaroyl][beta-D-glucopyranosyl-(1→3)-O-alpha-L-rhamnopyranosyl-(1→6)-O-beta-D-glucopyranoside]]
